Reference: patent publication US10308686B2, “Gamma-AApeptides with potent and broad-spectrum antimicrobial activity” (priority 2012, dated 2019)
In brackets after ≈: the same amount, converted by molar mass. Where two headings read alike, the source gives them in different places.

Columns and labels:
[1] = tested on: multi-drug resistant P. aeruginosa ATCC 27853
[2] = tested on: vancomycin-resistant E. faecalis (ATCC 700802); conditions: for MIC, E. faecalis (vancomycin-resistant): Table 3; for MIC, Gram positive E. faecalis: Table 7
[3] = tested on: K. pneumoniae (ATCC 13383)
C. albicans (ATCC 10231) = conditions: ATCC 10231
[4] = tested on: human red blood cells (hRBC's); test: Hemolysis assay; format: cell-based; conditions: for Hemolysis HC10 / Hemolysis HC50: red cells of human
Experimental: Freshly drawn human red blood cells (hRBC's) with additive K2 EDTA (spray-dried) were washed with PBS buffer several times and centrifuged at 1000 g for 10 min until a clear supernatant was observed. The hRBC's were resuspended in 1×PBS to get a 5% v/v suspension. Two-fold serial dilutions of γ-AApeptides dissolved in 1×PBS from 250 μg/ml through 1.6 μg/ml were added to a sterile 96-well plate to make up a total volume of 50 μL in each well. Then 50 μL of 5% v/v hRBC solution was added to make up a total volume of 100 μL in each well. The 0% hemolysis point and 100% hemolysis point were determined in 1×PBS and 0.2% Triton-X-100, respectively (Patch et al., 2003). The plate was then incubated at 37° C. for 1 h and centrifuged at 3500 rpm for 10 min. The supernatant (30 μL) was diluted with 100 μL of 1×PBS and absorption was detected by measuring the optical density at 360 nm by Biotek Synergy HT microtiter plate reader. % hemolysis was determined by the following equation: % hemolysis=(Abssample−AbsPBS)/(AbsTriton−AbsPBS)×100 H50 is the concentration of γ-AApeptide amphiphiles at which 50% hemolysis was observed. The highest concentration tested in the hemolytic assay was 500 μg/ml. 7. Fluorescence Microscopy
The sequences shown in FIG. 12 were also evaluated via hemolytic assays. Freshly drawn human red blood cells (hRBC's) with additive K2 EDTA (spray-dried) were washed with PBS buffer several times and centrifuged at 1000 g for 10 min until a clear supernatant was observed. The hRBC's were resuspended in 1×PBS to get a 5% v/v suspension. Two-fold serial dilutions of lipidated γ-AApeptides dissolved in 1×PBS from 1 mg/ml through 6.3 μg/ml were added to sterile 96-well plates to make up a total volume of 50 μL in each well. Then 50 μL of 5% v/v hRBC solution was added to make up a total volume of 100 μL in each well. The 0% hemolysis point and 100% hemolysis point were determined in 1×PBS and 0.2% Triton-X-100, respectively (Patch et al., 2003). The plate was then incubated at 37° C. for 1 h and centrifuged at 3500 rpm for 10 min. The supernatant (30 μL) was diluted with 100 μL of 1×PBS and absorption was detected by measuring the optical density at 360 nm with a Biotek Synergy HT microtiter plate reader. % hemolysis was determined by the following equation: % hemolysis=(Abs sample−Abs PBS)/(Abs Triton−Abs PBS)×100

[5] = tested on: methicillin-resistant S. aureus (ATCC 33592); conditions: for MIC, S. aureus (methicillin-resistant): Table 3; for MIC, Gram positive S. aureus: Table 7
[6] = tested on: multi-drug resistant S. epidermidis (RP62A); conditions: for MIC, S. epidermidis (multi-drug resistant): Table 3; for MIC, Gram positive S. epidermidis: Table 7

SMILES	MIC, B. subtilis (B. subtilis (BR151))	MIC, E. coli (E. coli (JM109))	MIC, P. aeruginosa ([1]; ATCC 27853)	MIC, E. faecalis (vancomycin-resistant) [2]	MIC, K. pneumoniae (causing pneumonia) [3]	MIC, Fungi C. albicans (C. albicans (ATCC 10231))	Hemolysis (H50) [4]	MIC, S. aureus (methicillin-resistant) [5]	MIC, S. epidermidis (multi-drug resistant) [6]	MIC, Gram positive B. subtilis (B. subtilis (BR151))	MIC, Gram negative E. coli (E. coli (JM109))	MIC, Gram negative P. aeruginosa ([1]; ATCC 27853)	MIC, Gram positive E. faecalis [2]	MIC, Gram negative K. pneumoniae [3]	MIC, Fungi, C. albicans (C. albicans (ATCC 10231))	Hemolysis HC10 [4]	Hemolysis HC50 [4]	MIC, Gram positive S. aureus [5]	MIC, Gram positive S. epidermidis [6]	MIC, P. aeruginosa ([1]; Table 3)
CC(C)CCC(=O)N1CC(=O)N[C@@H](Cc2ccccc2)CN(C(=O)CCC(C)C)CC(=O)N[C@@H](CCCCN)CN(C(=O)CCc2ccccc2)CC(=O)N[C@@H](CCCCN)CN(C(=O)CCc2ccccc2)CC(=O)N[C@@H](CCCCN)CN(C(=O)CCc2ccccc2)CC(=O)N[C@@H](CCCCN)CN(C(=O)CCc2ccccc2)CC(=O)N[C@@H](Cc2ccccc2)CN(CC(N)=O)C(=O)CCC(=O)N[C@@H](Cc2ccccc2)C1 [γAA5]	1 µg/mL (≈ 0.481 µM)	12.5 to 25 µg/mL	8 µg/mL (≈ 3.85 µM)	5 µg/mL (≈ 2.4 µM)	8 µg/mL (≈ 3.85 µM)	2 µg/mL (≈ 0.962 µM)	100 µg/mL	1 µg/mL (≈ 0.481 µM)	2 µg/mL (≈ 0.962 µM)	–	–	–	–	–	–	–	–	–	–	–
CCCCCCCCCCCCCCCC(=O)N[C@@H](C)CN(CC(=O)N[C@@H](CCCCN)CN(CC(=O)N[C@@H](Cc1ccccc1)CN(CC(=O)N[C@@H](Cc1ccccc1)CN(CC(N)=O)C(=O)CCc1c[nH]cn1)C(=O)CCc1c[nH]cn1)C(=O)CCCN)C(C)=O [γAA3]	1.6 to 3.1 µg/mL	1.6 to 3.1 µg/mL	3 to 6 µg/mL	1.6 to 3.1 µg/mL	12.5 to 25 µg/mL	1.6 to 3.1 µg/mL	150 µg/mL	1.6 to 3.1 µg/mL	1.6 to 3.1 µg/mL	–	–	–	–	–	–	–	–	–	–	–
CCCCCCCC/C=C\CCCCCCCC(=O)N[C@@H](CCCCN)CN(CC(N)=O)C(=O)CCCN [γAA7]	2 µg/mL (≈ 3.72 µM)	2.5 µg/mL (≈ 4.65 µM)	2.5 µg/mL (≈ 4.65 µM)	2.5 µg/mL (≈ 4.65 µM)	50 µg/mL (≈ 93 µM)	1.5 µg/mL (≈ 2.79 µM)	>500 µg/mL	5 µg/mL (≈ 9.3 µM)	1 µg/mL (≈ 1.86 µM)	–	–	–	–	–	–	–	–	–	–	–
CCCCCCCC/C=C\CCCCCCCC(=O)N[C@@H](CCCCN)CN(CC(=O)N[C@@H](CCCCN)CN(CC(N)=O)C(=O)CCCN)C(=O)CCCN [Sequence 12]	–	–	–	–	–	–	–	–	–	2.5 µg/mL (≈ 3.15 µM)	10 µg/mL (≈ 12.6 µM)	3 µg/mL (≈ 3.78 µM)	5 µg/mL (≈ 6.3 µM)	15 µg/mL (≈ 18.9 µM)	2 µg/mL (≈ 2.52 µM)	250 µg/mL	> 500 µg/mL	5 µg/mL (≈ 6.3 µM)	4 µg/mL (≈ 5.04 µM)	–
CCCCCCCC/C=C\CCCCCCCC(=O)N[C@@H](CCCCN)CN(CC(N)=O)C(=O)CCCN [Sequence 10]	–	–	–	–	–	–	–	–	–	2 µg/mL (≈ 3.72 µM)	2.5 µg/mL (≈ 4.65 µM)	3 µg/mL (≈ 5.58 µM)	2.5 µg/mL (≈ 4.65 µM)	35 µg/mL (≈ 65.1 µM)	2 µg/mL (≈ 3.72 µM)	40 µg/mL	100 µg/mL	4 µg/mL (≈ 7.44 µM)	2 µg/mL (≈ 3.72 µM)	–
CC(C)CCC(=O)N1CC(=O)N[C@@H](Cc2ccccc2)CN(C(=O)CCC(C)C)CC(=O)N[C@@H](Cc2ccccc2)CN(C(=O)CCC(C)C)CC(=O)N[C@@H](CCCCN)CN(C(=O)CCc2ccccc2)CC(=O)N[C@@H](CCCCN)CN(C(=O)CCc2ccccc2)CC(=O)N[C@@H](CCCCN)CN(C(=O)CCc2ccccc2)CC(=O)N[C@@H](Cc2ccccc2)CN(CC(N)=O)C(=O)CCC(=O)N[C@@H](Cc2ccccc2)C1 [γAA6]	2 µg/mL (≈ 0.969 µM)	25 to 50 µg/mL	–	5 µg/mL (≈ 2.42 µM)	10 µg/mL (≈ 4.84 µM)	4 µg/mL (≈ 1.94 µM)	300 µg/mL	3 µg/mL (≈ 1.45 µM)	2 µg/mL (≈ 0.969 µM)	–	–	–	–	–	–	–	–	–	–	10 µg/mL (≈ 4.84 µM)
CCCCCCCCCCCCCCCC(=O)N[C@@H](C)CN(CC(=O)N[C@@H](C)CN(CC(=O)N[C@@H](CCCCN)CN(CC(=O)N[C@@H](CCCCN)CN(CC(=O)N[C@@H](CCCCN)CN(CC(N)=O)C(=O)CCCN)C(=O)CCCN)C(=O)CCCN)C(C)=O)C(C)=O [Sequence 5]	–	–	–	–	–	–	–	–	–	2.5 µg/mL (≈ 1.87 µM)	2.5 µg/mL (≈ 1.87 µM)	15 µg/mL (≈ 11.2 µM)	10 µg/mL (≈ 7.48 µM)	15 µg/mL (≈ 11.2 µM)	7.5 µg/mL (≈ 5.61 µM)	200 µg/mL	> 500 µg/mL	10 µg/mL (≈ 7.48 µM)	10 µg/mL (≈ 7.48 µM)	–
CCCCCCCCCCCCCCCC(=O)N[C@@H](CCCCN)CN(CC(=O)N[C@@H](CCCCN)CN(CC(=O)N[C@@H](CCCCN)CN(CC(N)=O)C(=O)CCCN)C(=O)CCCN)C(=O)CCCN [Sequence 4]	–	–	–	–	–	–	–	–	–	1.5 µg/mL (≈ 1.46 µM)	20 µg/mL (≈ 19.5 µM)	15 µg/mL (≈ 14.6 µM)	10 µg/mL (≈ 9.76 µM)	>50 µg/mL	2 µg/mL (≈ 1.95 µM)	300 µg/mL	> 500 µg/mL	5 µg/mL (≈ 4.88 µM)	2 µg/mL (≈ 1.95 µM)	–
CCCCCCCCCCCCCCCC(=O)N[C@@H](C)CN(CC(=O)N[C@@H](C)CN(CC(=O)N[C@@H](Cc1ccccc1)CN(CC(=O)N[C@@H](Cc1ccccc1)CN(CC(=O)N[C@@H](Cc1ccccc1)CN(CC(N)=O)C(=O)CC(=O)O)C(=O)CC(=O)O)C(=O)CC(=O)O)C(C)=O)C(C)=O [Sequence 8]	–	–	–	–	–	–	–	–	–	>100 µg/mL	>100 µg/mL	>100 µg/mL	>100 µg/mL	>100 µg/mL	>100 µg/mL	200 µg/mL	> 500 µg/mL	>100 µg/mL	>100 µg/mL	–
CCCCCCCCCCCCCCCC(=O)N[C@@H](CCCCN)CN(CC(=O)N[C@@H](CCCCN)CN(CC(N)=O)C(=O)CCCN)C(=O)CCCN [Sequence 3]	–	–	–	–	–	–	–	–	–	1.5 µg/mL (≈ 1.95 µM)	30 µg/mL (≈ 39.1 µM)	20 µg/mL (≈ 26 µM)	8 µg/mL (≈ 10.4 µM)	20 µg/mL (≈ 26 µM)	2 µg/mL (≈ 2.6 µM)	40 µg/mL	300 µg/mL	5 µg/mL (≈ 6.51 µM)	2.5 µg/mL (≈ 3.25 µM)	–
CCCCCCCC/C=C\CCCCCCCC(=O)N[C@@H](C)CN(CC(=O)N[C@@H](C)CN(CC(=O)N[C@@H](CC(C)C)CN(CC(=O)N[C@@H](CC(C)C)CN(CC(=O)N[C@@H](CC(C)C)CN(CC(N)=O)C(=O)CCCN)C(=O)CCCN)C(=O)CCCN)C(C)=O)C(C)=O [Sequence 13]	–	–	–	–	–	–	–	–	–	3 µg/mL (≈ 2.28 µM)	3 µg/mL (≈ 2.28 µM)	3 µg/mL (≈ 2.28 µM)	4 µg/mL (≈ 3.04 µM)	3 µg/mL (≈ 2.28 µM)	3 µg/mL (≈ 2.28 µM)	100 µg/mL	> 500 µg/mL	3 µg/mL (≈ 2.28 µM)	3 µg/mL (≈ 2.28 µM)	–
CCCCCCCCCCCCCCCC(=O)N[C@@H](C)CN(CC(=O)N[C@@H](C)CN(CC(=O)N[C@@H](CCC(=O)O)CN(CC(=O)N[C@@H](CCC(=O)O)CN(CC(=O)N[C@@H](CCC(=O)O)CN(CC(N)=O)C(=O)CC(=O)O)C(=O)CC(=O)O)C(=O)CC(=O)O)C(C)=O)C(C)=O [Sequence 7]	–	–	–	–	–	–	–	–	–	>100 µg/mL	>100 µg/mL	>100 µg/mL	>100 µg/mL	>100 µg/mL	>100 µg/mL	250 µg/mL	> 500 µg/mL	>100 µg/mL	>100 µg/mL	–
